From ChEMBL document CHEMBL3507680, “University of Dundee, Gates Library screen for HepG2 cell viability” come the findings set out here.

The nature of this data set: Human HepG2 cell viability assay in 384 well format. On the set-up: dose 125 nL, time 70.5 hour; concentration not given beside the values. As to conditions: HepG2 cells, read-out: Inhibition. It counts as toxicity, cell-based.
Consider `CN(C(=O)COCc1ccccc1)C1CCN(CC2CCOC2)CC1` (stereo not given), for which the cytotoxicity at 70.5 h is -7.68%.

Turning to `CN1CCN(S(C)(=O)=O)c2ccc(F)cc21`, the cytotoxicity at 70.5 h is -11.1%.

As to `O=C(Nc1cc(C2CCOCC2)[nH]n1)c1ccc(Cl)cn1`, the cytotoxicity at 70.5 h was -1.48%.

Consider `CC(C#N)CNS(=O)(=O)c1ccc(F)c(Br)c1` (stereo not given), for which the cytotoxicity at 70.5 h was -7.42%.

On to `O=c1c2cccnc2cnn1CC(O)c1cccc(Cl)c1` (stereo not given), for which the cytotoxicity at 70.5 h came to 13.3%.

As for `N#CC1(NC(=O)c2ccn(-c3ccccc3Cl)n2)CCSC1` (stereo not given), the cytotoxicity at 70.5 h was -10.3%.

`COc1ncnc(N(C)C)c1NC(=O)Cc1c[nH]c2ccc(F)cc12`: the cytotoxicity at 70.5 h was -7.3%.

Turning to `Cc1ccc(S(=O)(=O)NC(C)C#N)cc1Br` (stereo not given), the cytotoxicity at 70.5 h is -3.42%.

Regarding `COc1cc(F)c(S(=O)(=O)N2c3ncccc3NC(=O)C2C)cc1OC` (stereo not given), the cytotoxicity at 70.5 h is -5.44%.

Take `O=C(C[S+]([O-])Cc1ccc(Cl)cc1Cl)N1CCc2sccc2C1` (stereo not given): the cytotoxicity at 70.5 h was -3.09%.

With `O=C(Nc1cc(C2CCOCC2)[nH]n1)c1cc[nH]n1`, the cytotoxicity at 70.5 h was -4.17%.

As to `CCN(Cc1ccoc1)C(=O)c1cc(C)c(C)c(S(N)(=O)=O)c1`, the cytotoxicity at 70.5 h was -9.16%.

For the compound `CCc1ccc(C(=O)N(CC)Cc2ccoc2)cc1S(C)(=O)=O`, the cytotoxicity at 70.5 h was -13.3%.

For `Cc1nn(CC(C)C)c(N(C)C)c1CNCCCNS(C)(=O)=O`, the cytotoxicity at 70.5 h was 31.6%.

For `Cc1nc2ccc(C(=O)N(CCC#N)CCC#N)cc2nc1C`, the cytotoxicity at 70.5 h worked out at 11.6%.

Consider `COCCOCC(=O)NC(C#N)c1cccc(Cl)c1Cl` (stereo not given), for which the cytotoxicity at 70.5 h was -6.94%.

For the compound `COCCOCC(=O)NC(C#N)c1ccccc1C` (stereo not given), the cytotoxicity at 70.5 h is -7.18%.

Turning to `O=C(NCCn1cccc1)C1CCCOC1` (stereo not given), the cytotoxicity at 70.5 h was -5.7%.

Turning to `Cn1cc(Br)cc(NC(=O)Cc2cccs2)c1=O`, the cytotoxicity at 70.5 h is 17.9%.

As to `O=C(NCCCNC(=O)C1CCC1)NCCn1cccc1`, the cytotoxicity at 70.5 h is -5.85%.

Take `O=C(NCCNC(=O)C1CCCCC1)NCCn1cccc1`: the cytotoxicity at 70.5 h was -4.89%.

With `COc1ncc(Cl)c(NCc2ccc([S+](C)[O-])cc2)n1` (stereo not given), the cytotoxicity at 70.5 h is -0.908%.

For `CC1CCCN(C(=O)NCC(F)F)C1` (stereo not given), the cytotoxicity at 70.5 h was -4.81%.

In the case of `COC1CCCN(C(=O)NCC(F)F)C1` (stereo not given), the cytotoxicity at 70.5 h was -5.69%.

Take `CN(Cc1ncnn1C)c1ccnc(Cc2ccccc2)n1`: the cytotoxicity at 70.5 h is -2.06%.

In the case of `CCN(CC1CCOC1)C(=O)c1cc(OC)c2c(c1)OCCO2` (stereo not given), the cytotoxicity at 70.5 h amounted to 0.516%.

On to `CCN(CC1CCOC1)C(=O)c1cc(Cl)c2c(c1)OCO2` (stereo not given), for which the cytotoxicity at 70.5 h was 26.7%.

With `Cc1nn(CC(C)C)c(N(C)C)c1CNCCS(C)(=O)=O`, the cytotoxicity at 70.5 h was determined as 5.47%.

On to `CC(=O)N(Cc1ccsc1)c1ccccc1`, for which the cytotoxicity at 70.5 h is -7.44%.

Consider `CN(Cc1ccccc1)CC(C)(C)NC(=O)c1cnns1`, for which the cytotoxicity at 70.5 h is -0.0616%.

Turning to `COCCOCC(=O)NC(C#N)c1c(F)cccc1Cl` (stereo not given), the cytotoxicity at 70.5 h is 20.7%.

Turning to `Cc1cc(C)cc(CN2CCCC2c2noc(C)n2)c1` (stereo not given), the cytotoxicity at 70.5 h came out at 0.367%.

Turning to `CN(Cc1ccccc1)CC(C)(C)NC(=O)c1cnccn1`, the cytotoxicity at 70.5 h is -0.0333%.

On to `O=C(C1CCCN(Cc2ccccc2)C1)N1CCc2sccc2C1` (stereo not given), for which the cytotoxicity at 70.5 h amounted to 31%.

Consider `Cc1nc(C2CCCN2Cc2cc(Cl)c3c(c2)OCO3)no1` (stereo not given), for which the cytotoxicity at 70.5 h is -4.26%.

Turning to `CC(C)=CCS(=O)(=O)Cc1nc(C(C)C)no1`, the cytotoxicity at 70.5 h is -11.6%.

On to `Cc1nc2cc(C(=O)N(CCN(C)C)CCN(C)C)ccc2n1C`, for which the cytotoxicity at 70.5 h was -7.57%.

Turning to `CN(C)c1nccc(N(C)Cc2ncnn2C)n1`, the cytotoxicity at 70.5 h was -3.04%.

Turning to `Cc1nc(CN2CCCN(C(=O)c3ccn(C)c(=O)c3)CC2)cs1`, the cytotoxicity at 70.5 h amounted to 30.7%.

`CNC(=O)NC(C)c1nc(-c2ccccc2)c[nH]1` (stereo not given): the cytotoxicity at 70.5 h was -3.67%.

With `CN(CCC#N)C(=O)CN(C1CC1)C1CCc2ccccc21` (stereo not given), the cytotoxicity at 70.5 h was 0.586%.

In the case of `Cc1nc(CCNC(=O)NC(C)c2ccc3c(c2)OCCO3)cs1` (stereo not given), the cytotoxicity at 70.5 h is -3.72%.

Turning to `CC(NC(=O)CCS(=O)(=O)C1CCCC1)c1nc(-c2ccccc2)c[nH]1` (stereo not given), the cytotoxicity at 70.5 h was -3.16%.

Regarding `COc1ccccc1CNC(=O)CNc1ccccc1C(C)=O`, the cytotoxicity at 70.5 h is -1.58%.

Regarding `NC(=O)C1CCCN1C1CCN(C(=O)c2cccc3c2OCO3)CC1` (stereo not given), the cytotoxicity at 70.5 h was -0.518%.

`CCOc1ccc(C(F)(F)F)cc1NC(=O)N1CCNC(=O)C1`: the cytotoxicity at 70.5 h is -1.6%.

Turning to `COCCN1CC(C(=O)Nc2ccc3c(c2)CCC(=O)N3C)CC1=O` (stereo not given), the cytotoxicity at 70.5 h came to 0.117%.

Regarding `CC(C)(C)CC(=O)NS(=O)(=O)c1ccc(F)cc1C(F)(F)F`, the cytotoxicity at 70.5 h was -1.73%.

On to `COCCS(=O)(=O)NC(C)c1ccccc1Cl` (stereo not given), for which the cytotoxicity at 70.5 h was -2.47%.

For `O=C(CCN1CCOC1=O)N(Cc1ccncc1)CC1CCCO1` (stereo not given), the cytotoxicity at 70.5 h was found to be 4.43%.

For `O=C(NCCC1CCN(CC(F)(F)F)CC1)C1COCCO1` (stereo not given), the cytotoxicity at 70.5 h came to 0.242%.

With `CC(C)C1CN(C(=O)c2ccn(C)c(=O)c2)c2ccccc2N1` (stereo not given), the cytotoxicity at 70.5 h is -0.488%.

With `CCOc1ccc(C(F)(F)F)cc1NC(=O)N1CCC(C(N)=O)CC1`, the cytotoxicity at 70.5 h was -4.57%.

Consider `O=C(Nc1cccn(Cc2ccc(F)cc2)c1=O)c1csnn1`, for which the cytotoxicity at 70.5 h was -0.164%.

For `CC1CN(Cc2ccccc2)CCCN1CCS(C)(=O)=O` (stereo not given), the cytotoxicity at 70.5 h is -2.05%.

For `Cc1n[nH]c(C2CN(Cc3csc(C4CC4)n3)CCO2)n1` (stereo not given), the cytotoxicity at 70.5 h is -7.97%.

Turning to `CC(Nc1cccc(Oc2ccc(C#N)cn2)c1)C(=O)NC1CC1` (stereo not given), the cytotoxicity at 70.5 h is -6.13%.

Consider `Cc1nc(-c2ccc(Cl)s2)sc1C(=O)O`, for which the cytotoxicity at 70.5 h was 1.47%.

As to `NC(=O)c1ccc(S(=O)(=O)NCCc2ccccn2)cc1`, the cytotoxicity at 70.5 h was determined as 1.11%.

As for `CNC(=O)c1ccc(S(=O)(=O)NCCc2ccccn2)cc1`, the cytotoxicity at 70.5 h came to 1.59%.

In the case of `CC(CN1CCOCC1)NC(=O)c1cccc2cn[nH]c12` (stereo not given), the cytotoxicity at 70.5 h is -3.84%.

Regarding `c1ccc2sc(NCC3(N4CCOCC4)CCSC3)nc2c1` (stereo not given), the cytotoxicity at 70.5 h was -4.14%.

For the compound `COc1ncccc1CNC(=O)C1CC(=O)N(C)C1` (stereo not given), the cytotoxicity at 70.5 h stood at 0.32%.

`CC(NC(=O)c1ccc(CS(C)(=O)=O)o1)c1ccc(F)c(F)c1` (stereo not given): the cytotoxicity at 70.5 h was -3.42%.

As to `Cc1ccc(NCc2ncc(C(C)(C)C)o2)c(Cl)c1`, the cytotoxicity at 70.5 h amounted to 1.61%.

As for `Cc1cc(NCCS(C)(=O)=O)nc2ccccc12`, the cytotoxicity at 70.5 h was -1.98%.

As to `CS(=O)(=O)CCOCCNc1ccc(Br)cn1`, the cytotoxicity at 70.5 h is -3.34%.

For `N#Cc1ccc(-c2nnc(CSCCN3CCOCC3)o2)cc1`, the cytotoxicity at 70.5 h is -5.77%.

In the case of `OC1CCN(Cc2ccc(CNc3ccc(Cl)cn3)cc2)CC1`, the cytotoxicity at 70.5 h was -0.577%.

On to `Cc1n[nH]c(C)c1CNC(=O)N(Cc1ccccc1)CC(C)(C)O`, for which the cytotoxicity at 70.5 h was -3.61%.

Turning to `CNC(=O)c1c(C)cccc1NCc1nnc(C2CC2)o1`, the cytotoxicity at 70.5 h is -2.15%.

For the compound `Cc1cc(NCCCNS(C)(=O)=O)nc2ccccc12`, the cytotoxicity at 70.5 h is 2.5%.

In the case of `CCc1cnc(CCNC(=O)N2CCCC(c3ncc[nH]3)C2)s1` (stereo not given), the cytotoxicity at 70.5 h stood at 1.32%.

With `Cc1ncc(COc2cccc3c2NC(=O)CO3)s1`, the cytotoxicity at 70.5 h worked out at 14.5%.

Turning to `Clc1ccccc1-c1nnc(CSCCN2CCOCC2)o1`, the cytotoxicity at 70.5 h was -2.19%.

On to `CC(C)c1nc(COc2cccc3c2NC(=O)CO3)cs1`, for which the cytotoxicity at 70.5 h stood at 13.8%.

For the compound `CCc1nnc2n1CCN(CC(O)CN1CCC(C)CC1)C2` (stereo not given), the cytotoxicity at 70.5 h came to 2.99%.

Take `CNC(=O)c1c(C)cccc1NCc1noc(C2CC2)n1`: the cytotoxicity at 70.5 h is -2.54%.

As to `CC(C)(C)c1cnc(CNc2cccc(Cn3cnnc3)c2)o1`, the cytotoxicity at 70.5 h was -2.54%.

For the compound `CCC(CC)CNCC1(S(C)(=O)=O)CCOCC1`, the cytotoxicity at 70.5 h was -3.95%.

Take `Cc1cnc(CNC(=O)N(Cc2ccccc2)CC(C)(C)O)s1`: the cytotoxicity at 70.5 h is -3.13%.

For `Cc1nc(CNC(=O)N(Cc2ccccc2)CC(C)(C)O)oc1C`, the cytotoxicity at 70.5 h was -3.06%.

Take `CCc1cnc(CNC(=O)N2CCCC(c3ncc[nH]3)C2)s1` (stereo not given): the cytotoxicity at 70.5 h was -4.75%.

With `CC(NCCN1CCC(N(C)C)CC1)c1ccc(Cl)s1` (stereo not given), the cytotoxicity at 70.5 h is 14.9%.

Regarding `O=C(CN1CCOCC1CC(=O)c1ccco1)NCc1ccccn1` (stereo not given), the cytotoxicity at 70.5 h stood at 2.07%.

In the case of `CC(C)NC(=O)CN(C1CC1)C(C)C1CC1` (stereo not given), the cytotoxicity at 70.5 h was -3.55%.

For the compound `CSC(C)(C)CNC(=O)NCc1cccc(-n2ccnc2)c1`, the cytotoxicity at 70.5 h was -12.4%.

For `Cc1ccccc1CN(C)CC(O)COCc1ccccc1Cl` (stereo not given), the cytotoxicity at 70.5 h was 21.6%.

As for `O=S(=O)(Cc1ccccc1)NCc1nnc2n1CCC2`, the cytotoxicity at 70.5 h was -22.1%.

As for `CC(=O)c1ccc(-n2c(C)cn(CCS(C)(=O)=O)c2=O)cc1`, the cytotoxicity at 70.5 h was -11.2%.

For the compound `CC(=O)c1ccc(-n2c(C)cn(CCC#N)c2=O)cc1`, the cytotoxicity at 70.5 h is 22.1%.

Take `Cc1cccc(N2CCN(C(=O)CCc3ccsc3)C(C)C2)n1` (stereo not given): the cytotoxicity at 70.5 h is -23.2%.

Regarding `CN(Cc1nnc(C2CCC2)o1)C(C(N)=O)c1cccc(F)c1` (stereo not given), the cytotoxicity at 70.5 h is -1.86%.

Turning to `Cc1cccc(N2CCN(C(=O)Cc3ccccc3O)C(C)C2)n1` (stereo not given), the cytotoxicity at 70.5 h is -1.34%.

Turning to `COCCNC(=O)NCc1cccc(-n2ccnc2)c1`, the cytotoxicity at 70.5 h is -13.7%.

For the compound `CC(=O)c1c(F)cccc1NCC(O)C(C)(C)C` (stereo not given), the cytotoxicity at 70.5 h was -11.2%.

Regarding `O=C(Cn1cc(-n2cccc2)cn1)NCC1CCC1`, the cytotoxicity at 70.5 h was -10.7%.

As for `COCCCn1ccc(NS(=O)(=O)c2cc(F)c(C)cc2F)n1`, the cytotoxicity at 70.5 h was -12.2%.

On to `COc1cccc(CC(=O)NC2CCCc3cn[nH]c32)c1` (stereo not given), for which the cytotoxicity at 70.5 h was -0.729%.

On to `O=S1(=O)CCN2C(=N1)Oc1ccc(Cl)cc12`, for which the cytotoxicity at 70.5 h worked out at 23.7%.

Regarding `Cc1cccc(N2CCN(C(=O)CC3(O)CCCC3)C(C)C2)n1` (stereo not given), the cytotoxicity at 70.5 h came to 0.326%.

As for `Cc1ccc(CCCC(=O)N2CCCC(CS(N)(=O)=O)C2)s1` (stereo not given), the cytotoxicity at 70.5 h is -5.56%.

In the case of `CC(C)(C#N)c1ccccc1CN(CCO)Cc1ccsc1`, the cytotoxicity at 70.5 h was -7.26%.

For `COc1ccc(S(=O)(=O)NCC(N)c2ccccc2)c(C)c1` (stereo not given), the cytotoxicity at 70.5 h is -5.68%.

On to `NC(CC1CCCC1)c1ccccc1` (stereo not given), for which the cytotoxicity at 70.5 h turned out to be 0.203%.
